“And” between values parts separate entries of the source, which are not always exact repeats. Identical values can stand only once. “Also recorded” adds a separate entry of the source.
Tests used:
[1] = tested on: S. Agona and E. coli (one strain each); assay: Biofilm formed on stainless steel coupons by Gram negative bacteria (CFU count); format: cell-based, Salmonella ser. Agona, Escherichia coli; settings: 20 °C for 72 hours
Protocol: One strain of S. Agona (FIG. 10) and one strain of E. coli (FIG. 10) was used in this study. The study was performed using 1,3-cyclohexanedione in a concentration of 1 and 10 mg/ml. The strain was stored at −80° C. in BHI (Difco, BD, Franklin Lakes, N.J., USA) supplemented with 15% glycerine (Merck KGaA, Darmstadt, Germany) and was recovered on blood agar at 37.0±1.0° C. The bacterial culture was then transferred into LB broth and was incubated statically overnight at 37.0±1.0° C. to obtain an overnight working culture. The Inhibio compound was dissolved in LB^wo/NaCl to a concentration of 10 mg/ml and then further diluted to a concentration of 1 mg/ml. 10 ml of each solution was added to a 50 ml Falcon tube and, in a third tube, only LB broth^wo/NaCl was added as a control. […]
Following incubation, each coupon was dipped three times in three different tubes containing physiological saline and further transferred to a tube containing 5 ml cold physiological saline as well as 20 sterile silica glass beads. […] After incubation, the bacterial colonies were counted. […]
The Colony forming units (CFU) on the plate was calculated into CFU in biofilm by multiplying with a factor for each dilution. Further, the log value was calculated of the average of each dilution.

[2] = tested on: Listeria monocytogenes (six strains); assay: Biofilm formation in microtiter plates, Listeria; format: cell-based; settings: 24 hours at 35 °C
Protocol: Six strains of Listeria monocytogenes were used in this study isolated from food research. The strains were recovered in 200 μl TSB broth in a microtiter plate and incubated at 37° C. for 24 hours. A total of 5 μl of the bacterial suspension was transferred to a 96 wells polystyrene microtiter plate (Thermo scientific Nucleon Delta surface) together with 200 μl medium (LB^wo/NaCl) with 1,3-cyclohexanedione (dissolved to 0,625 mg/ml, 2.5 mg/ml, 5 mg/ml and 10 mg/ml) to each well. Each strain was added in duplex and incubated at 35° C. for 24 hours. After incubation, OD595 was measured before the plates were gently washed one time with 200 μl tap water. This was repeated once. The plates were dried in room temperature before addition of 200 μl 0, 1% crystal violet (Sigma-Aldrich). After 30 minutes incubation in room temperature, the plates were washed twice with 200 μl tap water and once with 240 μl. This was followed by the addition of 200 μl ethanol:acetone (70:30 w:w) and incubated for another 10 minutes in room temperature. OD595 was measured in a microplate photometer (Multiscan EX) after the bound dye was dissolved using ethanol:acetone. For each strain, the result was calculated by subtracting the average OD595 of the two parallels of the control (test broth only) from the average OD595 of the two parallels of sample. Three independent experiments were performed. The average of the 6 strains as well as the average between the experiments was calculated.

[3] = tested on: Gram negative bacteria (Salmonella isolates); assay: Biofilm formation in polystyrene microtiter plates (crystal violet, OD595), Gram negative bacteria; format: cell-based, Salmonella ser. Typhimurium, Salmonella ser. Agona; settings: two days at 20 °C
Protocol: (§1) All experiments were performed by using sterile 96-wells polystyrene microtiter plates (Nunc, Nuncleon, Roskilde, Denmark) under conditions promoting biofilm formation by the different bacterial genera. The Inhibio compound preparations of the invention; 1,3-cyclohexanedione, 1,4-cyclohexanedione, cyclopentanone, 5-ethylcyclohexane-1,3-dione and 5-methyl-1,3 cyclohexanedione 98% were solved directly in Tryptic Soy Broth (TSB) 1+1 or Liquid Microbiology Broth (LB) broth without NaCl (LB^wo/NaCl) to obtain the test concentrations, i.e. from 1 mg/ml to 10 mg/ml.
(§2) One Salmonella ser. Typhimurium (S. Typhimurium), two Salmonella ser. Agona (S. Agona) and two Escherichia coli (E. coli) isolates were used in these studies. The studies performed using 1,3-cyclohexanedione and 1,4-cyclohexanedione were done on Salmonella isolates only. The studies comparing Menthone to 1,3-cyclohexanedione were using two E. coli strains, E. coli 1242 and E. coli 1153, see FIG. 11. The Salmonella isolates were isolated from Norwegian feed factories except one S. Typhimurium strain which was a culture collection strain (ATCC 14028). The E. coli isolates were of animal origin. All strains were stored at −80° C. in BHI supplemented with 15% glycerine and were recovered on blood agar at 37.0±1.0° C. The bacterial cultures were then transferred into LB broth and incubated statically overnight at 37.0±1.0° C. to obtain an overnight working culture. A total of 30 μl of this suspension was transferred to each well in 96 wells polystyrene microtiter plates (Nunc, Nuncleon, Roskilde, Denmark) in triplets. The wells were containing 100 μl LB^wo/NaCl (bacto-tryptone 10 g/l, yeast extract 5 g/l) with 1,3-cyclohexanedione dissolved in concentration 0 mg/ml, 1 mg/ml and 10 mg/ml in the total amount of broth and 1,4-cyclohexanedione and cyclopentanone at 0 mg/ml and 10 mg/ml. The microtiter plates were incubated statically for two days, at 20±1.0° C. After incubation, OD595 was measured before the plates were gently washed one time with 150 μl tap water. The plates were dried in room temperature before addition of 140 μl 1% crystal violet (Sigma-Aldrich). After 30 minutes incubation in room temperature, the plates were washed three times with tap water before addition of 140 μl ethanol:acetone (70:30 w:w) and incubated for another 10 minutes in room temperature. OD595 was measured in a microplate photometer (Multiscan EX) after the bound dye was dissolved using ethanol:acetone. For each strain, the result was calculated by subtracting the median OD595 of the three parallels of the control (test broth only) from the median OD595 of the three parallels of sample. Further, the averages of the Gram negative strains were calculated. Three independent experiments were performed and the average was evaluated.

[4] = tested on: E. coli 1242 and E. coli 1153; assay: Biofilm formation in microtiter plates, comparison of 1,3-cyclohexanedione and menthone; format: cell-based, Escherichia coli; settings: two values, one per strain (E. coli 1242, E. coli 1153)
Protocol: as §1
as §2, with “A total of 30 μl of this suspension was transferred to each well in 96 wells polystyrene microtiter plates (Nunc, Nuncleon, Roskilde, Denmark) in triplets. The wells were containing 100 μl LB^wo/NaCl (bacto-tryptone 10 g/l, yeast extract 5 g/l) with 1,3-cyclohexanedione dissolved in concentration 0 mg/ml, 1 mg/ml and 10 mg/ml in the total amount of broth and 1,4-cyclohexanedione and cyclopentanone at 0 mg/ml and 10 mg/ml. The microtiter plates were incubated statically for two days, at 20±1.0° C.” left out, “The plates were dried in room temperature before addition of 140 μl 1% crystal violet (Sigma-Aldrich). After 30 minutes incubation in room temperature, the plates were washed three times with tap water before addition of 140 μl ethanol:acetone (70:30 w:w) and incubated for another 10 minutes in room temperature.” left out

For `O=C1CCCC(=O)C1` [1,3-cyclohexanedione], the “CFU in biofilm on stainless steel coupon” value ([1]; 1 mg/ml) was “decrease in biofilm formation; also recorded: significant decrease”, the “CFU in biofilm on stainless steel coupon” value ([1]; 10 mg/ml) was “could not detect any colony forming units; also recorded: no bacteria found in the biofilm” and the “decrease in biofilm formation in percentage of the control” value (“decrease … in percentage of the control” for short) ([2]; 0.625 mg/ml) was 27%. The “decrease … in percentage of the control” value ([2]; 2.5 mg/ml) was 40%, the “decrease … in percentage of the control” value ([2]; 5 mg/ml) was 53% and the “decrease … in percentage of the control” value ([2]; 10 mg/ml) was 70%. For the same compound, the “decrease in biofilm formation, percentage of the control” value ([3]; 1 mg/ml) was 70%, the “decrease in biofilm formation, percentage of the control” value ([3]; 10 mg/ml) was 87% and the “decrease in biofilm formation” value ([4]; 1 mg/ml) was 46% and 70%. The “decrease in biofilm formation” value ([4]; 10 mg/ml) was 97% and 100%.

Source: patent US20190144368A1, “Compounds and compositions for biofilm prevention” (INHIBIO AS, priority 2016, published 2019)
